Laboratory results taken from publication PMC11284203 (Scientific Reports, 2024).
“Also recorded” adds a separate entry of the source.

Each molecule was assayed against T1, α-glucosidase (Saccharomyces cerevisiae, UniProt P53341) (assay: not given). Details: Lineweaver–Burk plot.
T1 sequence (P53341 whole entry): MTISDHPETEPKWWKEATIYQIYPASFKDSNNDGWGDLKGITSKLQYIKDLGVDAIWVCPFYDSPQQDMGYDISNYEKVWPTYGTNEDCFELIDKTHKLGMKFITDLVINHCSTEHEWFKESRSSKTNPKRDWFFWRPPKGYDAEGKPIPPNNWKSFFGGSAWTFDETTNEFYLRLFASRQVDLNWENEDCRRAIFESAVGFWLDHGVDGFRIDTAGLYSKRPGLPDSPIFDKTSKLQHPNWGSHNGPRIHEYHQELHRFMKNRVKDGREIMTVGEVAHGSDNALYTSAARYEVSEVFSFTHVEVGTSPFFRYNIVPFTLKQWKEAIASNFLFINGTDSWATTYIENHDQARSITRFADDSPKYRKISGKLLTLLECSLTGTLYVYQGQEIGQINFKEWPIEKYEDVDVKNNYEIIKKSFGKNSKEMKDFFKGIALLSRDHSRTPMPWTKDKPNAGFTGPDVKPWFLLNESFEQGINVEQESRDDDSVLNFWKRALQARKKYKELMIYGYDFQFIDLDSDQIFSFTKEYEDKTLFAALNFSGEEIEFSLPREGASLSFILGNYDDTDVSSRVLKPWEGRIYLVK

SMILES | mode of inhibition
COc1ccc2nc3cc(Cl)ccc3c(SCc3cn(Cc4ccc(F)cc4)nn3)c2c1 [Compound 7h, 9-((1-(4-fluorobenzyl)-1H-1,2,3-triazol-4-yl)methylthio)-6-chloro-2-methoxyacridine] | competitive inhibitor; also recorded: competitive inhibition

Each molecule was assayed against T1, α-glucosidase (assay: biochemical). Details: not given.

Ki [µM] | SMILES
98 | COc1ccc2nc3cc(Cl)ccc3c(SCc3cn(Cc4ccc(F)cc4)nn3)c2c1 [Compound 7h, 9-((1-(4-fluorobenzyl)-1H-1,2,3-triazol-4-yl)methylthio)-6-chloro-2-methoxyacridine]

What follows are molecules tested against T1, α-glucosidase (assay: α-glucosidase inhibition assay). Details: not given.

IC50 [µM] | SMILES
> 750 | COc1ccc2nc3cc(Cl)ccc3c(SCc3cn(Cc4cccc(Cl)c4Cl)nn3)c2c1 [Compound 7k, 9-((1-(2,3-dichlorobenzyl)-1H-1,2,3-triazol-4-yl)methylthio)-6-chloro-2-methoxyacridine]
229.2 ± 1.3 | COc1ccc2nc3cc(Cl)ccc3c(SCc3cn(Cc4ccc(Cl)cc4Cl)nn3)c2c1 [Compound 7l, 9-((1-(2,4-dichlorobenzyl)-1H-1,2,3-triazol-4-yl)methylthio)-6-chloro-2-methoxyacridine]
> 750 | COc1ccc2nc3cc(Cl)ccc3c(SCc3cn(Cc4ccccc4[N+](=O)[O-])nn3)c2c1 [Compound 7m, 9-((1-(2-nitrobenzyl)-1H-1,2,3-triazol-4-yl)methylthio)-6-chloro-2methoxyacridine]
> 750 | COc1ccc2nc3cc(Cl)ccc3c(SCc3cn(Cc4ccc([N+](=O)[O-])cc4)nn3)c2c1 [Compound 7n, 9-((1-(4-nitrobenzyl)-1H-1,2,3-triazol-4-yl)methylthio) -6-chloro-2-methoxyacridine]

Further lines, the molecule ahead of its results:

SMILES | IC50 [µM]
COc1ccc2nc3cc(Cl)ccc3c(SCc3cn(Cc4ccccc4)nn3)c2c1 [Compound 7a, 9-((1-benzyl-1H-1,2,3-triazol-4-yl)methylthio)-6-chloro-2-methoxyacridine] | 169.1 ± 0.9
COc1cccc(Cn2cc(CSc3c4ccc(Cl)cc4nc4ccc(OC)cc34)nn2)c1 [Compound 7b, 9-((1-(3-methoxybenzyl)-1H-1,2,3-triazol-4-yl)methylthio)-6-chloro-2-methoxyacridine] | > 750
COc1ccc(Cn2cc(CSc3c4ccc(Cl)cc4nc4ccc(OC)cc34)nn2)cc1 [Compound 7c, 9-((1-(4-methoxybenzyl)-1H-1,2,3-triazol-4-yl)methylthio)-6-chloro-2-methoxyacridine] | > 750
COc1ccc2nc3cc(Cl)ccc3c(SCc3cn(Cc4ccccc4C)nn3)c2c1 [Compound 7d, 6-chloro-2-methoxy-9-(((1-(2-methylbenzyl)-1H-1,2,3-triazol-4yl)methyl)thio)acridine] | 482 ± 0.2
COc1ccc2nc3cc(Cl)ccc3c(SCc3cn(Cc4cccc(C)c4)nn3)c2c1 [Compound 7e, 6-chloro-2-methoxy-9-(((1-(3-methylbenzyl)-1H-1,2,3-triazol-4-yl)methyl)thio)acridine] | > 750
COc1ccc2nc3cc(Cl)ccc3c(SCc3cn(Cc4ccc(C)cc4)nn3)c2c1 [Compound 7f, 6-chloro-2-methoxy-9-(((1-(4-methylbenzyl)-1H-1,2,3-triazol-4-yl)methyl)thio) acridine] | 123.1 ± 0.8
COc1ccc2nc3cc(Cl)ccc3c(SCc3cn(Cc4cccc(F)c4)nn3)c2c1 [Compound 7g, 9-((1-(3-fluorobenzyl) -1H-1,2,3-triazol-4-yl)methylthio) -6-chloro-2-methoxyacridine] | 164 ± 0.6
COc1ccc2nc3cc(Cl)ccc3c(SCc3cn(Cc4ccc(F)cc4)nn3)c2c1 [Compound 7h, 9-((1-(4-fluorobenzyl)-1H-1,2,3-triazol-4-yl)methylthio)-6-chloro-2-methoxyacridine] | 98 ± 0.3
COc1ccc2nc3cc(Cl)ccc3c(SCc3cn(Cc4ccccc4Cl)nn3)c2c1 [Compound 7i, 9-((1-(2-chlorobenzyl)-1H-1,2,3-triazol-4-yl)methylthio) -6-chloro-2-methoxyacridine] | > 750
COc1ccc2nc3cc(Cl)ccc3c(SCc3cn(Cc4ccccc4Br)nn3)c2c1 [Compound 7j, 9-((1-(2-bromobenzyl)-1H-1,2,3-triazol-4-yl)methylthio)-6-chloro-2-methoxyacridine] | 302.8 ± 0.6
